Legend:
[1] = molecular target: T1, SmCHS2 (chitin synthase 2) (Saprolegnia monoica, UniProt D7NQS9); experiment: radiometric chitin synthase assay ([…]-UDP-GlcNAc) on CHAPS membrane extract of recombinant Pichia; Dixon plots; format: biochemical
T1 construct: full-length SmCHS2 (962 amino acids) fused to eGFP at its C-terminus, expressed in Pichia pastoris, CHAPS extract of membranes
T1 sequence (D7NQS9 1-962): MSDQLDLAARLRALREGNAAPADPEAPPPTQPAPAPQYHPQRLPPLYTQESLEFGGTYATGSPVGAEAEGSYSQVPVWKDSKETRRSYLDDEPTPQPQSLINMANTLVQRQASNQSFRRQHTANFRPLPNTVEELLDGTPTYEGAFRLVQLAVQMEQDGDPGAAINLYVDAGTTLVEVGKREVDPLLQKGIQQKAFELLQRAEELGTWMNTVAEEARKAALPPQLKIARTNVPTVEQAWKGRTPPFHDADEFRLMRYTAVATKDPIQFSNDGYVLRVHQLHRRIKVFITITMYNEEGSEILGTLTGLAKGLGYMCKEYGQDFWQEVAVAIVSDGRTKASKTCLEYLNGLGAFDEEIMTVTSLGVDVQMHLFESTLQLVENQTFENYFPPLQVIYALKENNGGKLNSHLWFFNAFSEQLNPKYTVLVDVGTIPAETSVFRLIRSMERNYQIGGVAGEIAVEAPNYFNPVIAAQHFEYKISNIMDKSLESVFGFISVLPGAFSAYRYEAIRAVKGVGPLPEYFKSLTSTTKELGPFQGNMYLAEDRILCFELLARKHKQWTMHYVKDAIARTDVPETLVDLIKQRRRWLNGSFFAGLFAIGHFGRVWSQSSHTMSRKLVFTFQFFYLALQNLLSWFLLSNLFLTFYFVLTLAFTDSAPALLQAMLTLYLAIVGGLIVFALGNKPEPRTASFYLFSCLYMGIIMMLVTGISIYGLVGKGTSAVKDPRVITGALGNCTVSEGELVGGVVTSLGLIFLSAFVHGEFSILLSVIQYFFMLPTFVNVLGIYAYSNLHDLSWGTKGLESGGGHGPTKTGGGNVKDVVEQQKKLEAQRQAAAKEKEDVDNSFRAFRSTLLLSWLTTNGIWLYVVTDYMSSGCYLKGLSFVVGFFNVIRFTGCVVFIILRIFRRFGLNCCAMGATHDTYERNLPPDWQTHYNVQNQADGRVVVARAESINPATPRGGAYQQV

[2] = substrate: CC(=O)N[C@H]1[C@@H](OP(=O)(O)OP(=O)(O)OC[C@H]2O[C@@H](n3ccc(=O)[nH]c3=O)[C@H](O)[C@@H]2O)O[C@H](CO)[C@@H](O)[C@@H]1O; experiment: radiometric chitin synthase assay on CHAPS membrane extract of recombinant Pichia; apparent Km; format: biochemical, Saprolegnia monoica

`C[C@@H]([C@H](N)C(=O)N[C@H](C(=O)O)[C@H]1O[C@@H](n2ccc(=O)[nH]c2=O)[C@H](O)[C@@H]1O)[C@H](O)c1ccc(O)cn1` [nikkomycin Z] gave a Ki [1] of 4.6 µM.

B1: SmCHS2 (chitin synthase 2) (Saprolegnia monoica) (protein)
chain: T1 sequence (D7NQS9 1-962)
notes: full-length SmCHS2 (962 amino acids) fused to eGFP at its C-terminus, expressed in Pichia pastoris, CHAPS extract of membranes
With B1 the Km [2] was 150+12 µM.

Source: publication PMC2928807, “Chitin Synthases from Saprolegnia Are Involved in Tip Growth and Represent a Potential Target for Anti-Oomycete Drugs” (PLoS Pathogens, 2010)
